Data from patent US20110105430A1, “PYRROLO [2,3-C] PYRIDINE DERIVATIVES AS P38 KINEASE INHIBITING AGENTS” (priority 2008, published 2011).

What was measured:
p38α = biological target: T1, p38α (Homo sapiens, UniProt Q16539); experiment: p38 kinase assay, p38-α with peptide substrate (Caliper LabChip); type: biochemical
T1 construct: purchased Millipore
Procedure: Alternatively, p38 kinase assays were performed in a reaction volume of 70 μL in a 384-well plate, at 30° for […] under the following conditions: 50 mM Hepes, pH 7.4, 10 mM MgCl2, 1 mg/ml FA Free BSA, 1 mM DTT, 10 μM ATP, 10 μM p38 peptide [Caliper Life Sciences FL-Peptide 8 (5-FAM-IPTSPITTTYFFFKKK-COOH)] and 5.7 nM p38-α (Millipore), or 14.3 nM unactivated MAPKAP kinase-2, 0.18 nM p38-α (Millipore) and 2 uM RSK peptide [Caliper Life Sciences FL-Peptide 11 (5-FAM-KKLNRTLSVA-COOH)]. Serial dilutions of compounds were added to each reaction in 700 nL DMSO. 700 nL of DMSO was added to the control wells of the reaction plate as the no inhibitor control for each inhibitor titration. The reaction was terminated by the addition of 15 μL of a 100 mM EDTA. Product formation was analyzed using the Caliper LabChip 3000. The Separation buffer contained 100 mM HEPES pH 7.5, 0.015% Brij-35, 2.5% Coating Reagent #3 (Caliper Life Sciences) and 10 mM EDTA. Calculation of the substrate product ratios are performed using the HTS Well Analyzer software provided by Caliper Life Sciences and the percent inhibition at each compound concentration is determined.

TNF-α = experiment: IC50 hWB (TNF-α release assay); type: cell-based; conditions: Homo sapiens
Procedure: Blood was obtained from healthy volunteers by venipuncture using sodium heparin as an anti-coagulant. Peripheral blood mononuclear cells (PBMCs) were isolated using Lymphocyte Separation Medium (ICN) according to manufacturers specifications. Isolated PBMCs were washed 3 times with FIBSS and diluted to a density of 2×10^6 cells/mL in RPMI+5% autologous human serum. 50 μL of the serial dilutions of inhibitor were added to wells of a 96-well tissue culture plate followed by addition of 100 μL of PBMCs and then 50 μL of RPMI complete medium containing 400 ng/mL LPS. A control well of cells without compound but with LPS (maximal stimulation control) and one without compound and without LPS (background control) were included in each titration. The cells were incubated for 16 hours in a humidified incubator at 37° C., 5% CO2. Supernatants were then harvested and TNF-α levels were quantified by immunoassay using commercial reagents (R&D, Inc).

T1 sequence (Q16539 whole entry): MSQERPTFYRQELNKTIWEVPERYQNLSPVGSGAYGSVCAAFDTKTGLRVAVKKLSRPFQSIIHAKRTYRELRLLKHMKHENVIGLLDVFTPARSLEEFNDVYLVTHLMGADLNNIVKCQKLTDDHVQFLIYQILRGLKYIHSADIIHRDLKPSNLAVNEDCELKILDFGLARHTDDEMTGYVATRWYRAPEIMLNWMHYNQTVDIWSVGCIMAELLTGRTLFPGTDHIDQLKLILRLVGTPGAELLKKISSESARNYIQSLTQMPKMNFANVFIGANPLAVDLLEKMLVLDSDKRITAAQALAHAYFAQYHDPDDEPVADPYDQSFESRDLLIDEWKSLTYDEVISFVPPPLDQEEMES

Row | Compound | IC50 (p38α) [nM] | IC50 (TNF-α) [nM]
1 | O=C(c1c(F)cc(F)cc1F)c1c[nH]c2c(=O)n(Cc3nc4cc(C(F)(F)F)cnc4[nH]3)ccc12 [Example 19, 3-(2,4,6-trifluorobenzoyl)-6-{[6-(trifluoromethyl)-3H-imidazo[4,5-b]pyridin-2-yl]methyl}-1,6-dihydro-7H-pyrrolo[2,3-c]pyridin-7-one] | 31 | 365
2 | O=C(c1ccc(F)cc1F)c1c[nH]c2c(=O)n(Cc3cn4ccccc4n3)ccc12 [Example 20, 3-(2,4-difluorobenzoyl)-6-(imidazo[1,2-a]pyridin-2-ylmethyl)-1,6-dihydro-7H-pyrrolo[2,3-c]pyridin-7-one] | 18 | 162
3 | O=C(c1c(F)cccc1F)c1c[nH]c2c(=O)n(Cc3nc4ncc(C(F)(F)F)cc4[nH]3)ccc12 [Example 21, 3-(2,6-difluorobenzoyl)-6-{[6-(trifluoromethyl)-3H-imidazo[4,5-b]pyridin-2-yl]methyl}-1,6-dihydro-7H-pyrrolo[2,3-c]pyridin-7-one] | 38 | 2060
4 | CN(C)C(=O)c1ccn2cc(Cn3ccc4c(C(=O)c5c(F)cc(F)cc5F)c[nH]c4c3=O)nc2c1 [Example 24, N,N-dimethyl-2-{[7-oxo-3-(2,4,6-trifluorobenzoyl)-1,7-dihydro-6H-pyrrolo[2,3-c]pyridin-6-yl]methyl}imidazo[1,2-a]pyridine-7-carboxamide] | 3.8 | 21
5 | O=c1c2[nH]cc(Cc3c(F)cc(F)cc3F)c2ccn1Cc1nc2ncccc2[nH]1 [Example 29, 6-(1H-imidazo[4,5-b]pyridin-2-ylmethyl)-3-(2,4,6-trifluorobenzyl)-1,6-dihydro-7H-pyrrolo[2,3-c]pyridin-7-one] | 108 | 503
